Assay [1] concerns the target T1, hNET (Homo sapiens, UniProt P23975).
T1 construct: expressed in transfected cells; host or cells: HEK-293 (HEK-hNET), membranes
The assay can be described thus: competition binding assay, recombinant human NET in HEK-293 cell membranes. An excerpt:
(§1) These transporters control the amount of the three monoamines in the TMMS and therefore regulate fast excitatory and inhibitory neurotransmission in the CNS. Thus, the relative amounts of all three of these monoamines in the TMMS of brain controls mammalian neurobehaviors. To determine the Ki of the representative compounds; recombinant human monoamine transporters (DAT, SERT and NET) were expressed in HEK-293 cells as described in Eshleman et al. (1999). The HEK-hDAT, HEK-hSERT and HEK-hNET cells were incubated in modified Eagle's medium or Dulbecco's modified Eagle's medium exactly as described by Eshleman et al. Cells were grown until confluent on 150 mm diameter tissue culture dishes in a humidified 10% CO2 environment at 37° C. […] Paroxetine (SERT), [125sup I] RTI-55 binding (DAT) and (NET). The binding assays contained an aliquot of membranes prepared from the HEK cell lines expressing the recombinant human transporters (≈12-30 μg protein, depending on the cell line, adjusted to bind <10% of the total radioactivity added to the assay), [125supI] RTI-55 (0.2 nM final concentration) or [3supH] Paroxetine (0.4 nM final concentration) along with Krebs-HEPES assay buffer to yield a final volume of 250 μL. Specific binding was defined as the difference in binding observed in the presence and absence of 10 μM nomifensine (HEK-hDAT), 10 uM desipramine HEK-NET) or 10 μM imipramine (HEK-hSERT). The reaction was incubated for 90 min at room temperature in the dark and was terminated by vacuum filtration. Competition experiments were conducted with duplicate determinations.

Assay [2] deals with T2, hDAT (Homo sapiens, UniProt Q01959).
T2 construct: expressed in transfected cells; host or cells: HEK-293 (HEK-hDAT), membranes
The assay can be described thus: competition binding assay, recombinant human DAT in HEK-293 cell membranes. To be noted: [125I]RTI-55 0.2 nM, ± mean standard error, 3 trials, read-out: Inhibition of binding at human monoamine transporters (Ki) hDAT.
From the text: as §1

In assay [3] the target is T3, hSERT (Homo sapiens, UniProt P31645).
T3 construct: expressed in transfected cells; host or cells: HEK-293 (HEK-hSERT), membranes
The assay can be described thus: competition binding assay, recombinant human SERT in HEK-293 cell membranes.
From the text: as §1

For assay [4], the system named is chronic fatigue syndrome. The assay can be described thus: clinical case study, chronic fatigue syndrome (Example 5). It is filed as in vivo, human. To be noted: person, Mazindol 5.0 mg per day, after 10 days of therapy. An excerpt:
P. C. a person had suffered from chronic fatigue syndrome, “chemical sensitivity and for one year with marked fatigue each day beginning in the early or mid afternoon. There has been some accompanying muscle aching, but no symptoms of central neurosystem involvement. Their functioning at work and at home had been seriously impaired. EBV titers were positive.

The subject of assay [5] is Tourette syndrome. Kind of assay: clinical case study, Tourette syndrome with ADHD (Example 4). It counts as in vivo, human. To be noted: patient, Mazindol 7.5 mg per day started. As for the experimental part:
patient one is a person. They began to have constant vocal tics. Motor tics started […], consisting of licking their lips, rolling their eyes, hand and foot tics. They were diagnosed as having Tourette syndrome. […], the major problems were with their tics, outbursts and lack of control. Despite treatment with methylphenidate 20 mg twice a day (bid), haloperidol 0.5 mg and paroxetine 10 mg, they were in special school and was suffering from uncountable motor and vocal tics everyday during waking hours and with outbursts of shouting, coprolalia and episodes of self-mutilation. coprolabia, lying, hitting things and people, and extremely oppositional.

The subject of assay [6] is symptoms of ADHD. The assay can be described thus: clinical case study, ADHD (Example 3). It counts as in vivo, human. The source says:
patient two is a person. […], they were also being treated with risperidone which continued for 2 years. […] Subsequently, the risperidone was then completely discontinued without any recurrence of symptoms of ADHD (i.e. poor attention span, hyperactivity, or inappropriate behavior).

Assay [7] concerns dementia. The assay can be described thus: clinical case study, dementia with motor impairment (Example 7). To be noted: person, Mazindol 8 mg per day, after 2 weeks of treatment. It is filed as in vivo, human. An excerpt: R 0 is a person had suffered from motor impairment and cognitive decline. They developed frank dementia and required institutionalization and nursing care. […] Based on reports by their care givers their became more aware of surrounding and was able to recognize family member for the first time in one year and was not “hearing and seeing things that were not there”.

Assay [8] deals with obsessive compulsive behavior. The assay can be described thus: clinical case study, obsessive compulsive behavior (Example 8). It counts as in vivo, human. To be noted: person, Mazindol 5 mg per day. An excerpt:
patient five is a person who developed compulsive behaviors after the birth of their first child. […] They washed all food even if it had been pre-packaged and placed in specific foods in specific locations in their pantry and refrigerator which they were sure were the “safest: They wore gloves when they left the house and made […] children do so as well. They sprayed disinfectant on everything […] or […] children came in contact with and refused in eat in restaurants. Prior to their pregnancy they had been diagnosed with polycystic ovary disease and need treatment in order to conceive. They were told that they were also “borderline diabetic”. […] Shortly, after beginning their therapy they reported that “mood was better” and they didn't “feel anxious” about bacteria anymore. After three weeks of therapy with Mazindol they stopped wearing gloves (and forcing […] children to do so) and using disinfectant. Their spouse reported that they were a “new […]” and they were no allowed to put the groceries away without having to place it in particular places.

Assay [9] relates to reward deficiency disorder. Kind of assay: clinical case study, reward deficiency disorder (Example 6). It is filed as in vivo, human. To be noted: person, Mazindol 2 mg BID, over several weeks. An excerpt: W. K. a person had suffered from alcohol abuse, sexual addiction and pathologic gambling for 10 years. They had been in counseling, Alcoholic Anonymous, Gamblers Anonymous on and off over the past 10 years with minimal effects. They had lost their marriage and several jobs as result of their behavioral problems. They had been treated with antidepressants, but they had been of little help. […] In addition, they reported that the thrill they have always gotten from gambling was no long present and they no longer felt compulsion to gamble.

Where [10] appears, read: [125I]RTI-55 0.2 nM, HEK-hNET membranes, ± mean standard error, 3 trials, read-out: Inhibition of binding at human monoamine transporters (Ki) hNET.
Where [11] appears, read: [3H]Paroxetine 0.4 nM, HEK-hSERT membranes, ± mean standard error, 3 trials, read-out: Inhibition of binding at human monoamine transporters (Ki) hSERT.

SMILES strings stand for the structures. Read-outs that look alike come from different tables or passages of the source.

T1 sequence (P23975 whole entry): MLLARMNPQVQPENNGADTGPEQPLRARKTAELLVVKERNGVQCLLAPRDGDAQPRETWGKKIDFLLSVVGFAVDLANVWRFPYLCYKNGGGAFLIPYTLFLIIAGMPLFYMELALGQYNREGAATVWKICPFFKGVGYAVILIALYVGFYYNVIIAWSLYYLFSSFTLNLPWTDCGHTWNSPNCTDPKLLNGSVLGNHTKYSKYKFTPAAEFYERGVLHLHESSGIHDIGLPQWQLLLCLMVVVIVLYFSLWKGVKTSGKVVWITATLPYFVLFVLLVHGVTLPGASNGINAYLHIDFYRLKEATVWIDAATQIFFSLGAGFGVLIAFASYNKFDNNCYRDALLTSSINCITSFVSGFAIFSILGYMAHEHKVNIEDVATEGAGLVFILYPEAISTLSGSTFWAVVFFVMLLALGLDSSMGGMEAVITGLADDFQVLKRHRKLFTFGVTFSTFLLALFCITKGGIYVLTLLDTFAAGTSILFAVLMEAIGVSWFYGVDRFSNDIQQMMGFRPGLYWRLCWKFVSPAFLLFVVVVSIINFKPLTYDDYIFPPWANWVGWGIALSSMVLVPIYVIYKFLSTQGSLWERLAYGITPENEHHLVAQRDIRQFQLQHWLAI
T2 sequence (Q01959 whole entry): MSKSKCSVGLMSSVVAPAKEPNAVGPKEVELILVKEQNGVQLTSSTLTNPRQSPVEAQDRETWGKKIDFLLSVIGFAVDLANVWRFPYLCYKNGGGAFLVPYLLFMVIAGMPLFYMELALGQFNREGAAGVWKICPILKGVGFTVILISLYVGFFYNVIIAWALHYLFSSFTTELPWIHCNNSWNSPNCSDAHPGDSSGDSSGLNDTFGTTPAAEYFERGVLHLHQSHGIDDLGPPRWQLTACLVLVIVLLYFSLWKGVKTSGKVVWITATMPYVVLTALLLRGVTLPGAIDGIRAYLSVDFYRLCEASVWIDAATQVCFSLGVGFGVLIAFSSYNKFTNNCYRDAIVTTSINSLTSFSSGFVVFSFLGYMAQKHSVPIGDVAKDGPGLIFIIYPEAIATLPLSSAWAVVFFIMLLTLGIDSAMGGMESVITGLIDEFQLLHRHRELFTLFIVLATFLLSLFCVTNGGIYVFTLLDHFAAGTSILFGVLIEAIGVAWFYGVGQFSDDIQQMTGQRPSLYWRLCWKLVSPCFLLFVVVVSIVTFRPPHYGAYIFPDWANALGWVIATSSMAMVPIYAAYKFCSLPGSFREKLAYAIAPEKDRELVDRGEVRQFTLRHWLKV
T3 sequence (P31645 whole entry): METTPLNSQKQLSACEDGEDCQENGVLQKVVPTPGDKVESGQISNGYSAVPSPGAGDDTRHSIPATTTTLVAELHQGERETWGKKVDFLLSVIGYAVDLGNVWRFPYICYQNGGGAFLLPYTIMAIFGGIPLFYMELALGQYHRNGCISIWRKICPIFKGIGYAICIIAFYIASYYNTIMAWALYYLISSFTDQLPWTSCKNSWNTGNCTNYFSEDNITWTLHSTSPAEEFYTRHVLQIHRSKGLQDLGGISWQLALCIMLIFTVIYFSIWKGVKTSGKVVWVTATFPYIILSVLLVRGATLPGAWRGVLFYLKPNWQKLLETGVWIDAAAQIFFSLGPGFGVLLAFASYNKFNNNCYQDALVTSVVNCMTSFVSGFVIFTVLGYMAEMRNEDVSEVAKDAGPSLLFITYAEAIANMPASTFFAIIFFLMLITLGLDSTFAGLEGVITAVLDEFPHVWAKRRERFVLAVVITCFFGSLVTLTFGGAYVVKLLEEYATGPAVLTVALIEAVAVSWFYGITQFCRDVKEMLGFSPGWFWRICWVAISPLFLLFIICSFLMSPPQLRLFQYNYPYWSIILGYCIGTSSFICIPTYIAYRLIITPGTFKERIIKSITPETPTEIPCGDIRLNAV

In general, Ki refers to the dissociation constant of the complex between target and ligand, obtained from inhibition or displacement. Regarding `OC1(c2ccc(Cl)c(Cl)c2)c2ccccc2C2=NCCN21` (stereo not drawn) [Cpd 1, 5-(3,4-dichlorophenyl)-2,5-dihydro-5H-imidazo(2,1-a)isoindol-5-ol], the Ki in assay [1] (setting [10]) turned out to be 363 ± 41 nM; in [2], 25 ± 4.8 nM; in assay [3] (setting [11]), 101 ± 7.9 nM.

Turning to `Clc1ccc(C2c3ccccc3C3=NCCN32)cc1` (stereo not drawn) [Cpd 2, 5-(4-Chlorophenyl)-2,5-dihydro-5H-imidazo(2,1-a)is oindole], the Ki in assay [1] (setting [10]) turned out to be 56 ± 19 nM; in assay [2], 45 ± 11 nM; in assay [3] (setting [11]), 14 ± 5 nM.

As to `Clc1ccc(C2c3ccccc3C3=NCCN32)cc1` (stereo not drawn) [Cpd 3, 5-(4-Chlorophenyl)-2,3-dihydro-5H-imidazo (2,1-a)is oindole], the values for the Ki in assay [1] (setting [10]), in [2] and in assay [3] (setting [11]) were 89 ± 18 nM, 111 ± 7.3 nM and 312 ± 45 nM, respectively.

For the molecule `OC1(c2ccc(Cl)cc2)c2ccccc2C2=NCCN21` (stereo not drawn) [mazindol, 5-(4-Chlorophenyl)-2,5-dihydro-5H-imidazo(2,1-a)is oindol-5-ol], the “clinical response of fatigue and muscle ache” value in [4] was “complete relief of their fatigue and muscle ache symptoms”. The inhibitory constant (Ki) in [1] came out at 24 ± 2 nM; in [3] it was 56 ± 9 nM. In assay [5], the “clinical response of tics, outbursts and related symptoms” value is given as “significant improvement in these symptoms”. In [6] (Mazindol 2.5 mg/day as sole agent, over the next 3 years), the “recurrence of ADHD symptoms on maintenance” value was “without the return of any symptoms of ADHD”. In assay [6] (patient, Mazindol 2.5 mg BID started, within 2 months), the “clinical response of ADHD symptoms” value is listed as “improved attention span, loss of hyperactivity”. Further, the “clinical response of motor function and dementia” value in assay [7] was “improvement of their motor function, and their dementia”. Moreover, the “clinical response of obsessive compulsive behavior” value in assay [8] is recorded as “relief of their obsessive compulsive behavior”. Moreover, the “clinical response of drinking and gambling behavior” value in assay [9] was “able to completely stop drinking after 5 weeks”.

The values above are taken from patent US20180098970A1, “USE OF […] THE TREATMENT OF NEURO[…]” (Afecta Pharmaceuticals, Inc., priority 2008, published 2018).
